As a reminder, the Ki is the equilibrium dissociation constant of an inhibitor or competing ligand from its target.

For assay [1], the target named is isolated recombinant JAK2 kinase domain (Homo sapiens (Human), UniProt O60674). As to the kind of experiment: JAK2 enzyme assay (Caliper LabChip, peptide phosphorylation). The assay is classed as biochemical. As to conditions: 25 μM ATP.
Assay [2] relates to JAK1-dependent STAT6 phosphorylation downstream of IL-13 stimulation in TF-1 human erythroleukemia cells. Kind of assay: JAK1 pathway assay in TF-1 cells (IL-13-pSTAT6, MSD). The format is cell-based. Conditions: Homo sapiens, TF-1, TF-1 cells, read-out: IL13-pSTAT6 EC50_TF-1. On the procedure:
JAK1 Pathway Assay in Cell Lines was Carried Out as Follows:
Inhibitor potency (EC50) was determined in cell-based assays designed to measure JAK1 dependent STAT phosphorylation.
In one assay approach, TF-1 human erythroleukemia cells obtained from the American Type Culture Collection (ATCC; Manassas, Va.) were used to measure JAK1-dependent STAT6 phosphorylation downstream of IL-13 stimulation. Prior to use in the assays, TF-1 cells were starved of GM-CSF overnight in OptiMEM medium (Life Technologies, Grand Island, N.Y.) supplemented with 0.5% charcoal/dextran stripped fetal bovine serum (FBS), 0.1 mM non-essential amino acids (NEAA), and 1 mM sodium pyruvate. The assays were run in 384-well plates in serum-free OptiMEM medium using 300,000 cells per well. In a second assay approach, BEAS-2B human bronchial epithelial cells obtained from ATCC were plated at 100,000 cells per well of a 96-well plate one day prior to the experiment. The BEAS-2B assay was run in complete growth medium (bronchial epithelial basal medium plus bulletkit; Lonza; Basel, Switzerland).
Test compounds were serially diluted 1:2 in DMSO and then diluted 1:50 in medium just before use. Diluted compounds were added to the cells, for a final DMSO concentration of 0.2%, and incubated for 30 min (for the TF-1 assay) or 1 hr (for the BEAS-2B assay) at 37° C. Then, cells were stimulated with human recombinant cytokine at their respective EC90 concentrations, as previously determined for each individual lot. Cells were stimulated with IL-13 (R&D Systems, Minneapolis, Minn.) for 15 min at 37° C. The TF-1 cell reactions were stopped by the direct addition of 10× lysis buffer (Cell Signaling Technologies, Danvers, Mass.), whereas the BEAS-2B cell incubations were halted by the removal of medium and addition of 1× lysis buffer. The resultant samples were frozen in the plates at −80° C. Compound mediated inhibition of STAT6 phosphorylation was measured in the cell lysates using MesoScale Discovery (MSD) technology (Gaithersburg, Md.).

The target of assay [3] is isolated recombinant JAK1 kinase domain (Homo sapiens (Human), UniProt P23458). As to the kind of experiment: JAK1 enzyme assay (Caliper LabChip, peptide phosphorylation). The assay is classed as biochemical. As to conditions: isolated recombinant JAK1 kinase domain, 25 μM ATP.
Chain of isolated recombinant JAK1 kinase domain (P23458 875-1153): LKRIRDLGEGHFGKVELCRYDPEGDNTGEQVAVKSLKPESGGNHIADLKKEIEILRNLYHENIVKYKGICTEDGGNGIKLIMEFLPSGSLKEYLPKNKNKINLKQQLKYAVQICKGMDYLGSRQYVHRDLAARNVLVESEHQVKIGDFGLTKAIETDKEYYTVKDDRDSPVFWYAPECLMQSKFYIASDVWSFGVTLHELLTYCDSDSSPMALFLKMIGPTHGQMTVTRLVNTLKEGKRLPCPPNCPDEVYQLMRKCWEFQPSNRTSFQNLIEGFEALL

Counter-ions that a name gives are not always drawn.

Chain of isolated recombinant JAK2 kinase domain (O60674 849-1124): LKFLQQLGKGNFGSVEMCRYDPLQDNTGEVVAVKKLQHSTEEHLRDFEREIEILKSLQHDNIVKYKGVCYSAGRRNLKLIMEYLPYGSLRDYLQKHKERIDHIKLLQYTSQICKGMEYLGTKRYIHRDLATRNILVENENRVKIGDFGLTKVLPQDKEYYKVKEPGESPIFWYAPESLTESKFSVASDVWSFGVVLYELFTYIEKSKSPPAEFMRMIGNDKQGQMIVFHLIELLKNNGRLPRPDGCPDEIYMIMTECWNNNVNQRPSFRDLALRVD

Regarding `O=C(Nc1cn(C2CCNCC2)nc1-c1cc(Cl)ccc1OC(F)F)c1cnn2cccnc12` [Example 1, Pyrazolo[1,5-a]pyrimidine-3-carboxylic acid [3-(5-chloro-2-difluoromethoxyphenyl)-1-piperidin-4-yl-1H-pyrazol-4-yl]amide hydrochloride], the inhibitory constant (Ki) in assay [1] was 0.46 nM; in assay [3], 1.62 nM. Further, in assay [2], the EC50 is 21.1 nM.

With `O=C(Nc1cn(CC(=O)N2C[C@H]3CNC[C@H]3C2)nc1-c1cc(Cl)ccc1OC(F)F)c1cnn2cccnc12` [Example 4, Cis-pyrazolo[1,5-a]pyrimidine-3-carboxylic acid {3-(5-chloro-2-difluoromethoxyphenyl)-1-[2-(hexahydropyrrolo[3,4-c]pyrrol-2-yl)-2-oxoethyl]-1H-pyrazol-4-yl}amide], the Ki was found to be 0.8 nM in assay [1] and 0.66 nM in assay [3]. The EC50 in assay [2] stood at 547 nM.

Turning to `CCN1C[C@@H]2CN(C(=O)Cn3cc(NC(=O)c4cnn5cccnc45)c(-c4cc(Cl)ccc4OC(F)F)n3)C[C@@H]2C1` [Example 5, Cis pyrazolo[1,5-a]pyrimidine-3-carboxylic acid {3-(5-chloro-2-difluoromethoxyphenyl)-1-[2-(5ethyl-hexahydro-pyrrolo[3,4-c]pyrrol-2-yl)-2-oxoethyl]-1H-pyrazol-4-yl}amide hydrochloride], the inhibitory constant (Ki) in assay [1] worked out at 0.78 nM; in assay [3], 0.84 nM. In addition, the EC50 in assay [2] is 11.1 nM.

On to `O=C(Nc1cn(CC(=O)N2C[C@H]3CN(CC4CC4)C[C@H]3C2)nc1-c1cc(Cl)ccc1OC(F)F)c1cnn2cccnc12` [Example 6, Cis-pyrazolo[1,5-a]pyrimidine-3-carboxylic acid {3-(5-chloro-2-difluoromethoxyphenyl)-1-[2-(5-cyclopropylmethylhexahydropyrrolo[3,4-c]pyrrol-2-yl)-2-oxoethyl]-1H-pyrazol-4-yl}amide], for which the Ki in assay [1] worked out at 0.75 nM; in assay [3], 0.71 nM. In assay [2], the EC50 amounted to 5.9 nM.

As to `CN1C[C@@H]2CN(C(=O)Cn3cc(NC(=O)c4cnn5ccc(N)nc45)c(-c4cc(Cl)ccc4OC(F)F)n3)C[C@@H]2C1` [Example 7, 5-Amino-pyrazolo[1,5-a]pyrimidine-3-carboxylic acid {3-(5-chloro-2-difluoromethoxy-phenyl)-1-[2-((3aR,6aS)-5-methyl-hexahydro-pyrrolo[3,4-c]pyrrol-2-yl)-2-oxo-ethyl]-1H-pyrazol-4-yl}-amide hydrochloride], the Ki came to 0.96 nM in assay [1] and 1.1 nM in assay [3]. In addition, in assay [2], the EC50 stood at 1040 nM.

Regarding `Cc1cnc2c(C(=O)Nc3cn(CC(=O)N4C[C@H]5CN(C)C[C@H]5C4)nc3-c3cc(Cl)ccc3OC(F)F)cnn2c1` [Example 8, 6-Methyl-pyrazolo[1,5-a]pyrimidine-3-carboxylic acid {3-(5-chloro-2-difluoromethoxy-phenyl)-1-[2-((3aR,6aS)-5-methyl-hexahydro-pyrrolo[3,4-c]pyrrol-2-yl)-2-oxo-ethyl]-1H-pyrazol-4-yl}-amide hydrochloride], the inhibitory constant (Ki) in assay [1] was 120 nM; in assay [3], 96.3 nM. The EC50 in assay [2] came to 746 nM.

Turning to `CCN1CC2CN(C(=O)Cn3cc(NC(=O)c4c(N)nn5cccnc45)c(-c4cc(Cl)ccc4OC(F)F)n3)CC2C1` (centres unmarked) [Example 11, 2-amino-N-[3-[5-chloro-2-(difluoromethoxy)phenyl]-1-[2-(2-ethyl-1,3,3a,4,6,6a-hexahydropyrrolo[3,4-c]pyrrol-5-yl)-2-oxo-ethyl]pyrazol-4-yl]pyrazolo[1,5-a]pyrimidine-3-carboxamide], the inhibition constant Ki in assay [1] worked out at 0.3 nM; in assay [3] it was 1.05 nM. For the same compound, the EC50 in assay [2] is 11.8 nM.

With `CC(C)N1C[C@H]2CN(C(=O)Cn3cc(NC(=O)c4cnn5cccnc45)c(-c4cc(Cl)ccc4OC(F)F)n3)C[C@H]2C1` [Example 12, N-[1-[2-[(3aS,6aR)-2-isopropyl-1,3,3a,4,6,6a-hexahydropyrrolo[3,4-c]pyrrol-5-yl]-2-oxo-ethyl]-3-[5-chloro-2-(difluoromethoxy)phenyl]pyrazol-4-yl]pyrazolo[1,5-a]pyrimidine-3-carboxamide], the Ki in assay [1] was found to be 1.17 nM; in assay [3] it was 1.3 nM. In assay [2], the EC50 turned out to be 15 nM.

Consider `O=C(Nc1cn(CC(=O)N2C[C@H]3CN(CCc4ccccc4)C[C@H]3C2)nc1-c1cc(Cl)ccc1OC(F)F)c1cnn2cccnc12` [Example 13, N-[1-[2-[(3aS,6aR)-2-(2-phenylethyl)-1,3,3a,4,6,6a-hexahydropyrrolo[3,4-c]pyrrol-5-yl]-2-oxo-ethyl]-3-[5-chloro-2-(difluoromethoxy)phenyl]pyrazol-4-yl]pyrazolo[1,5-a]pyrimidine-3-carboxamide], for which the inhibition constant Ki worked out at 0.66 nM in assay [1] and 0.73 nM in assay [3]. Moreover, the EC50 in assay [2] came out at 22 nM.

Take `O=C(Nc1cn(CC(=O)N2C[C@H]3CN(CCCO)C[C@H]3C2)nc1-c1cc(Cl)ccc1OC(F)F)c1cnn2cccnc12` [Example 14, N-[1-[2-[(3aR,6aS)-2-(3-hydroxypropyl)-1,3,3a,4,6,6a-hexahydropyrrolo[3,4-c]pyrrol-5-yl]-2-oxo-ethyl]-3-[5-chloro-2-(difluoromethoxy)phenyl]pyrazol-4-yl]pyrazolo[1,5-a]pyrimidine-3-carboxamide]: the inhibition constant (Ki) in assay [1] was determined as 1.13 nM; in assay [3], 1.14 nM. Also, the EC50 in assay [2] was determined as 335 nM.

Take `CN(C)C(=O)N1CCC(CN2C[C@@H]3CN(C(=O)Cn4cc(NC(=O)c5cnn6cccnc56)c(-c5cc(Cl)ccc5OC(F)F)n4)C[C@@H]3C2)CC1` [Example 36, N-[1-[2-[(3aR,6aS)-2-[[1-(dimethylcarbamoyl)-4-piperidyl]methyl]-1,3,3a,4,6,6a-hexahydropyrrolo[3,4-c]pyrrol-5-yl]-2-oxo-ethyl]-3-[5-chloro-2-(difluoromethoxy)phenyl]pyrazol-4-yl]pyrazolo[1,5-a]pyrimidine-3-carboxamide]: the inhibition constant (Ki) in assay [1] is 0.62 nM. In assay [2], the EC50 was determined as 57.6 nM.

As for `Nc1nn2cccnc2c1C(=O)Nc1cn(CC(=O)N2C[C@H]3CN(CC4CC4)C[C@H]3C2)nc1-c1cc(Cl)ccc1OC(F)F` [Example 57, N-[1-[2-[(3aS,6aR)-2-(cyclopropylmethyl)-1,3,3a,4,6,6a-hexahydropyrrolo[3,4-c]pyrrol-5-yl]-2-oxo-ethyl]-3-[5-chloro-2-(difluoromethoxy)phenyl]pyrazol-4-yl]-2-amino-pyrazolo[1,5-a]pyrimidine-3-carboxamide], the Ki in assay [1] was determined as 0.13 nM. For the same compound, the EC50 in assay [2] came to 15 nM.

In the case of `Nc1nn2cccnc2c1C(=O)Nc1cn(C2CCCNCC2)nc1-c1cc(Cl)ccc1OC(F)F` (centres unmarked) [Example 171, 2-amino-N-[1-(azepan-4-yl)-3-[5-chloro-2-(difluoromethoxy)phenyl]pyrazol-4-yl]pyrazolo[1,5-a]pyrimidine-3-carboxamide], the Ki in assay [1] came to 0.17 nM. In addition, the EC50 in assay [2] came out at 21.9 nM.

Take `O=C(Nc1cn(CC(=O)N2CCC3(CNC3)C2)nc1-c1cc(Cl)ccc1OC(F)F)c1cnn2cccnc12` [Example 219, N-[3-[5-chloro-2-(difluoromethoxy)phenyl]-1-[2-(2,6-diazaspiro[3.4]octan-6-yl)-2-oxo-ethyl]pyrazol-4-yl]pyrazolo[1,5-a]pyrimidine-3-carboxamide]: the Ki in assay [1] was determined as 1.28 nM. The EC50 in assay [2] was determined as 1030 nM.

With `O=C(Nc1sc(CN2CCCCC2)nc1-c1cc(Cl)ccc1OC(F)F)c1cnn2cccnc12` [Example 263, N-[4-[5-chloro-2-(difluoromethoxy)phenyl]-2-(1-piperidylmethyl)thiazol-5-yl]pyrazolo[1,5-a]pyrimidine-3-carboxamide], the EC50 in assay [2] was found to be 19.2 nM. For the same compound, the inhibitory constant (Ki) in assay [3] stood at 1.5 nM.

With `O=C(Nc1cn(CC(=O)N2CCC[C@H]2CO)nc1-c1cc(Cl)ccc1OC(F)F)c1cnn2cccnc12` [Example 268, N-[3-[5-chloro-2-(difluoromethoxy)phenyl]-1-[2-[(2S)-2-(hydroxymethyl)pyrrolidin-1-yl]-2-oxo-ethyl]pyrazol-4-yl]pyrazolo[1,5-a]pyrimidine-3-carboxamide], the EC50 in assay [2] amounted to 5.5 nM. In assay [3], the Ki came out at 0.49 nM.

Take `N#CC1(c2ccccc2)CCN(C(=O)Cn2cc(NC(=O)c3cnn4cccnc34)c(-c3cc(Cl)ccc3OC(F)F)n2)CC1` [Example 281, N-[3-[5-chloro-2-(difluoromethoxy)phenyl]-1-[2-(4-cyano-4-phenyl-1-piperidyl)-2-oxo-ethyl]pyrazol-4-yl]pyrazolo[1,5-a]pyrimidine-3-carboxamide]: in assay [1], the inhibitory constant (Ki) worked out at 0.45 nM. Besides, the EC50 in assay [2] was determined as 2.2 nM.
